In ChEMBL document CHEMBL4138123, “Design, synthesis and biological evaluation of novel pyrazolochalcones as potential modulators of PI3K/Akt/mTOR pathway and inducers of apoptosis in breast cancer cells” (Eur J Med Chem, 2017):

Tests used:
Assay type in all cases: functional
UACC-62 = assay: Cytotoxicity against human UACC62 cells assessed as cell growth at 1 uM after 48 hrs by sulforhodamine B assay relative to control; settings: UACC-62, 48 h, read-out: Activity
MDA-MB-435 = assay: Cytotoxicity against human MDA-MB-435 cells assessed as cell growth at 1 uM after 48 hrs by sulforhodamine B assay relative to control; settings: MDA-MB-435, 48 h, read-out: Activity
OVCAR-3 = assay: Cytotoxicity against human OVCAR3 cells assessed as growth inhibition after 48 hrs by sulforhodamine B assay; settings: OVCAR-3, 48 h
MDA-MB-468 = assay: Cytotoxicity against human MDA-MB-468 cells assessed as cell growth at 100 uM after 48 hrs by sulforhodamine B assay relative to control; settings: MDA-MB-468, 48 h, read-out: Activity
NCI/ADR-RES = assay: Cytotoxicity against human NCI/ADR-RES cells assessed as cell growth at 1 uM after 48 hrs by sulforhodamine B assay relative to control; settings: read-out: Activity
TK-10 [1] = assay: Cytotoxicity against human TK10 cells assessed as cell growth at 0.1 uM after 48 hrs by sulforhodamine B assay relative to control; settings: TK-10, 48 h, read-out: Activity
HCT-116 = assay: Cytotoxicity against human HCT116 cells assessed as cell growth at 0.01 uM after 48 hrs by sulforhodamine B assay relative to control; settings: HCT-116, 48 h, read-out: Activity
SF-268 = assay: Cytotoxicity against human SF268 cells assessed as cell growth at 100 uM after 48 hrs by sulforhodamine B assay relative to control; settings: SF-268, 48 h, read-out: Activity
PC-3 [2] = assay: Cytotoxicity against human PC3 cells assessed as cell growth at 0.1 uM after 48 hrs by sulforhodamine B assay relative to control; settings: PC-3, 48 h, read-out: Activity
786-0 [3] = assay: Cytotoxicity against human 786-0 cells assessed as cell growth at 10 uM after 48 hrs by sulforhodamine B assay relative to control; settings: 786-0, 48 h, read-out: Activity
T47D [4] = assay: Cytotoxicity against human T47D cells assessed as cell growth at 0.1 uM after 48 hrs by sulforhodamine B assay relative to control; settings: read-out: Activity
SF-539 [5] = assay: Cytotoxicity against human SF539 cells assessed as cell growth at 1 uM after 48 hrs by sulforhodamine B assay relative to control; settings: SF-539, 48 h, read-out: Activity
Hs-578T = assay: Cytotoxicity against human Hs 578T cells assessed as cell growth at 100 uM after 48 hrs by sulforhodamine B assay relative to control; settings: read-out: Activity
HCC 2998 = assay: Cytotoxicity against human HCC2998 cells assessed as cell growth at 100 uM after 48 hrs by sulforhodamine B assay relative to control; settings: HCC 2998, 48 h, read-out: Activity
KM12 [6] = assay: Cytotoxicity against human KM12 cells assessed as cell growth at 1 uM after 48 hrs by sulforhodamine B assay relative to control; settings: KM12, 48 h, read-out: Activity
IGROV-1 = assay: Cytotoxicity against human IGROV1 cells assessed as cell growth at 1 uM after 48 hrs by sulforhodamine B assay relative to control; settings: IGROV-1, 48 h, read-out: Activity
SK-MEL-5 = assay: Cytotoxicity against human SK-MEL-5 cells assessed as cell growth at 100 uM after 48 hrs by sulforhodamine B assay relative to control; settings: SK-MEL-5, 48 h, read-out: Activity
COLO 205 = assay: Cytotoxicity against human COLO205 cells assessed as cell growth at 1 uM after 48 hrs by sulforhodamine B assay relative to control; settings: COLO 205, 48 h, read-out: Activity
RPMI-8226 = assay: Cytotoxicity against human RPMI8226 cells assessed as cell growth at 10 uM after 48 hrs by sulforhodamine B assay relative to control; settings: RPMI-8226, 48 h, read-out: Activity
HCT-15 = assay: Cytotoxicity against human HCT15 cells assessed as cell growth at 100 uM after 48 hrs by sulforhodamine B assay relative to control; settings: HCT-15, 48 h, read-out: Activity
SN12C [7] = assay: Cytotoxicity against human SN12C cells assessed as cell growth at 0.1 uM after 48 hrs by sulforhodamine B assay relative to control; settings: read-out: Activity
SN12C [8] = assay: Cytotoxicity against human SN12C cells assessed as cell growth at 10 uM after 48 hrs by sulforhodamine B assay relative to control; settings: read-out: Activity
SN12C [9] = assay: Cytotoxicity against human SN12C cells assessed as cell growth at 1 uM after 48 hrs by sulforhodamine B assay relative to control; settings: read-out: Activity
T47D [10] = assay: Cytotoxicity against human T47D cells assessed as cell growth at 0.01 uM after 48 hrs by sulforhodamine B assay relative to control; settings: read-out: Activity
SNB-19 = assay: Cytotoxicity against human SNB19 cells assessed as cell growth at 0.1 uM after 48 hrs by sulforhodamine B assay relative to control; settings: SNB-19, 48 h, read-out: Activity
SK-MEL-28 = assay: Cytotoxicity against human SK-MEL-28 cells assessed as growth inhibition after 48 hrs by sulforhodamine B assay; settings: SK-MEL-28, 48 h
CCRF-CEM [11] = assay: Cytotoxicity against human CCRF-CEM cells assessed as cell growth at 100 uM after 48 hrs by sulforhodamine B assay relative to control; settings: read-out: Activity
KM12 [12] = assay: Cytotoxicity against human KM12 cells assessed as cell growth at 0.01 uM after 48 hrs by sulforhodamine B assay relative to control; settings: KM12, 48 h, read-out: Activity
PC-3 [13] = assay: Cytotoxicity against human PC3 cells assessed as growth inhibition after 48 hrs by sulforhodamine B assay; settings: PC-3, 48 h
CCRF-CEM [14] = assay: Cytotoxicity against human CCRF-CEM cells assessed as cell growth at 10 uM after 48 hrs by sulforhodamine B assay relative to control; settings: read-out: Activity
SF-539 [15] = assay: Cytotoxicity against human SF539 cells assessed as cell growth at 0.1 uM after 48 hrs by sulforhodamine B assay relative to control; settings: SF-539, 48 h, read-out: Activity
NCI-H460 = assay: Cytotoxicity against human NCI-H460 cells assessed as cell growth at 0.1 uM after 48 hrs by sulforhodamine B assay relative to control; settings: NCI-H460, 48 h, read-out: Activity
TK-10 [16] = assay: Cytotoxicity against human TK10 cells assessed as cell growth at 10 uM after 48 hrs by sulforhodamine B assay relative to control; settings: TK-10, 48 h, read-out: Activity
T47D [17] = assay: Cytotoxicity against human T47D cells assessed as growth inhibition after 48 hrs by sulforhodamine B assay
U-251 = assay: Cytotoxicity against human U251 cells assessed as cell growth at 0.01 uM after 48 hrs by sulforhodamine B assay relative to control; settings: U-251, 48 h, read-out: Activity
786-0 [18] = assay: Cytotoxicity against human 786-0 cells assessed as cell growth at 1 uM after 48 hrs by sulforhodamine B assay relative to control; settings: 786-0, 48 h, read-out: Activity

SMILES: COc1ccc(-c2cc(/C=C/C(=O)c3ccc(N)cc3)[nH]n2)cc1OC
- growth at 1 µM (UACC-62): 95%
- growth at 1 µM (MDA-MB-435): 94%
- GI50 (OVCAR-3): 1.92 µM
- LC50 (OVCAR-3): 9.14 µM
- TGI (OVCAR-3): 4.19 µM
- growth at 100 µM (MDA-MB-468): -73%
- growth at 1 µM (NCI/ADR-RES): 99%
- growth at 0.1 µM (TK-10 [1]): 100%
- growth at 0.01 µM (HCT-116): 96%
- growth at 100 µM (SF-268): -80%
- growth at 0.1 µM (PC-3 [2]): 95%
- growth at 10 µM (786-0 [3]): -48%
- growth at 0.1 µM (T47D [4]): 90%
- growth at 1 µM (SF-539 [5]): 88%
- growth at 100 µM (Hs-578T): 4%
- growth at 100 µM (HCC 2998): -91%
- growth at 1 µM (KM12 [6]): 88%
- growth at 1 µM (IGROV-1): 100%
- growth at 100 µM (SK-MEL-5): -94%
- growth at 1 µM (COLO 205): 98%
- growth at 10 µM (RPMI-8226): -20%
- growth at 100 µM (HCT-15): -71%
- growth at 0.1 µM (SN12C [7]): 99%
- growth at 10 µM (SN12C [8]): 14%
- growth at 1 µM (SN12C [9]): 93%
- growth at 0.01 µM (T47D [10]): 85%
- growth at 0.1 µM (SNB-19): 90%
- GI50 (SK-MEL-28): 2.14 µM
- LC50 (SK-MEL-28): 21.1 µM
- TGI (SK-MEL-28): 5.66 µM
- growth at 100 µM (CCRF-CEM [11]): -22%
- growth at 0.01 µM (KM12 [12]): 102%
- GI50 (PC-3 [13]): 3.71 µM
- LC50 (PC-3 [13]): > 100 µM
- TGI (PC-3 [13]): 19.8 µM
- growth at 10 µM (CCRF-CEM [14]): -8%
- growth at 0.1 µM (SF-539 [15]): 97%
- growth at 0.1 µM (NCI-H460): 100%
- growth at 10 µM (TK-10 [16]): 56%
- GI50 (T47D [17]): 4.25 µM
- LC50 (T47D [17]): > 100 µM
- TGI (T47D [17]): 26 µM
- growth at 0.01 µM (U-251): 95%
- growth at 1 µM (786-0 [18]): 87%
